Experimental data reported in patent publication US4216142A, “Chromogenic substrates for the proteolytic enzymes” (Abbott Laboratories, priority 1978, dated 1980).

System: human thrombin
Test: kinetic analysis of chromogenic substrate hydrolysis by thrombin
Format: biochemical
Details: substrate 0.1 M in 0.17 M Tris buffer, pH 7.4; human thrombin 0.63 mg/ml; 37° C.; monitored at 405 nm
Method: The enzyme and the substrate are mixed in a buffer solution, and the reaction is followed spectrophotometrically for 2 to 30 minutes. The concentration of substrate [S] is varied, whereas the enzyme concentration [E] is kept constant. If the extinction (OD) (=optical density) is plotted in a coordinate system as a function of time, a curve is obtained the tangent of which (difference in extinction per minute, Δ OD/minute, from which the quantity in μmoles of pNA/min(v) can be calculated) at time zero corresponds to the initial course of the hydrolysis. By means of this tangent the initial rate of the hydrolysis can be determined.
If l/v is plotted against l/[S], a Lineweaver-Burk diagram is obtained from which vmax and Km can be determined graphically. Thus Km and kcat can be determined.

sarcosylprolylarginine-p-nitrophenylanilide hydrochloride [Sar-Pro-Arg-pNA.2HCl]
Km: 920 µM | kcat: 158 s⁻¹
